Laboratory results: ChEMBL document CHEMBL1955734, “JFCR39, a panel of 39 human cancer cell lines, and its application in the discovery and development of anticancer drugs” (Bioorg Med Chem, 2012)
pIC50: −log10 of the molar value. Values belong to the molecule of their own block, whether it stands above or below them.

How the values were obtained:
[1] = biological target: Telomerase reverse transcriptase (Homo sapiens, UniProt O14746); assay: Inhibition of telomerase
[2] = Growth inhibition of human HBC4 cells; type: functional, cell-based
[3] = Growth inhibition of human BSY1 cells; type: functional, cell-based; details: BSY-1
[4] = Growth inhibition of human HBC5 cells; type: functional, cell-based
[5] = test system: MCF7; assay: Growth inhibition of human MCF7 cells; type: functional, cell-based
[6] = test system: MDA-MB-231; assay: Growth inhibition of human MDA-MB-231 cells; type: functional, cell-based
[7] = test system: U-251; assay: Growth inhibition of human U251 cells; type: functional, cell-based
[8] = test system: SF-268; assay: Growth inhibition of human SF268 cells; type: functional, cell-based
[9] = test system: SF-295; assay: Growth inhibition of human SF295 cells; type: functional, cell-based
[10] = test system: SF-539; assay: Growth inhibition of human SF539 cells; type: functional, cell-based
[11] = test system: SNB-75; assay: Growth inhibition of human SNB75 cells; type: functional, cell-based
[12] = test system: SNB-78; assay: Growth inhibition of human SNB78 cells; type: functional, cell-based
[13] = test system: HCC 2998; assay: Growth inhibition of human HCC2998 cells; type: functional, cell-based
[14] = test system: KM12; assay: Growth inhibition of human KM12 cells; type: functional, cell-based
[15] = test system: HT-29; assay: Growth inhibition of human HT-29 cells; type: functional, cell-based
[16] = test system: HCT-15; assay: Growth inhibition of human HCT15 cells; type: functional, cell-based
[17] = test system: HCT-116; assay: Growth inhibition of human HCT116 cells; type: functional, cell-based
[18] = test system: NCI-H23; assay: Growth inhibition of human NCI-H23 cells; type: functional, cell-based
[19] = test system: NCI-H226; assay: Growth inhibition of human NCI-H226 cells; type: functional, cell-based
[20] = test system: NCI-H522; assay: Growth inhibition of human NCI-H522 cells; type: functional, cell-based
[21] = Growth inhibition of human NCI-H483 cells; type: functional, cell-based
[22] = test system: A549; assay: Growth inhibition of human A549 cells; type: functional, cell-based
[23] = test system: DMS-273; assay: Growth inhibition of human DMS273 cells; type: functional, cell-based
[24] = test system: DMS-114; assay: Growth inhibition of human DMS114 cells; type: functional, cell-based
[25] = test system: LOX IMVI; assay: Growth inhibition of human LOXIMVI cells; type: functional, cell-based
[26] = test system: OVCAR-3; assay: Growth inhibition of human OVCAR3 cells; type: functional, cell-based
[27] = test system: OVCAR-4; assay: Growth inhibition of human OVCAR4 cells; type: functional, cell-based
[28] = test system: OVCAR-5; assay: Growth inhibition of human OVCAR5 cells; type: functional, cell-based
[29] = test system: OVCAR-8; assay: Growth inhibition of human OVCAR8 cells; type: functional, cell-based
[30] = test system: SK-OV-3; assay: Growth inhibition of human SKOV3 cells; type: functional, cell-based
[31] = Growth inhibition of human RXF631L cells; type: functional; details: RXF 631
[32] = test system: ACHN; assay: Growth inhibition of human ACHN cells; type: functional, cell-based
[33] = test system: St-4; assay: Growth inhibition of human St-4 cells; type: functional, cell-based
[34] = Growth inhibition of human MKN1 cells; type: functional, cell-based; details: MKN-1
[35] = test system: MKN-7; assay: Growth inhibition of human MKN7 cells; type: functional, cell-based
[36] = test system: MKN-28; assay: Growth inhibition of human MKN28 cells; type: functional, cell-based
[37] = test system: MKN-45; assay: Growth inhibition of human MKN45 cells; type: functional, cell-based
[38] = test system: MKN-74; assay: Growth inhibition of human MKN74 cells; type: functional, cell-based
[39] = test system: DU-145; assay: Growth inhibition of human DU145 cells; type: functional, cell-based
[40] = test system: PC-3; assay: Growth inhibition of human PC3 cells; type: functional, cell-based

Chain of Telomerase reverse transcriptase (O14746 whole entry): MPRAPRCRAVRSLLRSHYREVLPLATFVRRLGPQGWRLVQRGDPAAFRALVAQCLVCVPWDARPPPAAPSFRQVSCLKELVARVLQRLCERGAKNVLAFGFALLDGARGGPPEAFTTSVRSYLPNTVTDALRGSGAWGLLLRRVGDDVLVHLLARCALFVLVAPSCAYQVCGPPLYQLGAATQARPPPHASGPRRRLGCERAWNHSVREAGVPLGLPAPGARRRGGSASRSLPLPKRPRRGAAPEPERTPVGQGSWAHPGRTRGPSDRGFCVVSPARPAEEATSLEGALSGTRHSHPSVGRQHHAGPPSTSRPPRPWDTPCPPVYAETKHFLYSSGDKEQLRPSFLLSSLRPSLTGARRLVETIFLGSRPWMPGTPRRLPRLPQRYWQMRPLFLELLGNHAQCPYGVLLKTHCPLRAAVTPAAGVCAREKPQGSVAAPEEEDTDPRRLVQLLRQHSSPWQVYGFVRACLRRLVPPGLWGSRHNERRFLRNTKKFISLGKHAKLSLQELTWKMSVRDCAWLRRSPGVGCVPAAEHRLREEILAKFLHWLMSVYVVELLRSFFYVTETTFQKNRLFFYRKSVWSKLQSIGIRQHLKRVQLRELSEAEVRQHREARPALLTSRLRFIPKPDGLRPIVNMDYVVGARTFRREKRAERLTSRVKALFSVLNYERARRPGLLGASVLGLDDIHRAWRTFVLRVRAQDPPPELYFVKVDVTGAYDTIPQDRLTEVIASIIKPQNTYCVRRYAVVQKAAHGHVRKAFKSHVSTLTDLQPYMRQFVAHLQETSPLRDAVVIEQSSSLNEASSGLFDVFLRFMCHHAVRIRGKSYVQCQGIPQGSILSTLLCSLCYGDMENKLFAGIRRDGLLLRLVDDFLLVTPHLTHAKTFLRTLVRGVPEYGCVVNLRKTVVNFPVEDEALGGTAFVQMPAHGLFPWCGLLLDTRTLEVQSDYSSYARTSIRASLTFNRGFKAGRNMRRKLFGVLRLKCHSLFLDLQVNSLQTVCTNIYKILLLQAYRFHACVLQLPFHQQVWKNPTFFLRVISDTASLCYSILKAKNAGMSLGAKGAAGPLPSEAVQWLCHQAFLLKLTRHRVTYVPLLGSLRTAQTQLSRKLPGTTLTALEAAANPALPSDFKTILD

pIC50 [1]: 5.70
SMILES: CCn1c(=O)/c(=C2\Sc3ccccc3N2C)s/c1=C\c1scc(C)[n+]1CC

SMILES: Cn1cc(NC(=O)CC[S+](C)C)cc1-c1nc2cc(C(=O)Nc3ccc(N(CCCl)CCCl)cc3)ccc2[nH]1
pIC50 [2]: 6.15
pIC50 [3]: 6.15
pIC50 [4]: 6.15
pIC50 [5]: 6.15
pIC50 [6]: 6.15
pIC50 [7]: 6.15
pIC50 [8]: 6.15
pIC50 [9]: 6.15
pIC50 [10]: 6.15
pIC50 [11]: 6.15
pIC50 [12]: 6.15
pIC50 [13]: 6.15
pIC50 [14]: 6.15
pIC50 [15]: 6.15
pIC50 [16]: 6.15
pIC50 [17]: 6.15
pIC50 [18]: 6.15
pIC50 [19]: 6.15
pIC50 [20]: 6.15
pIC50 [21]: 6.15
pIC50 [22]: 6.15
pIC50 [23]: 6.15
pIC50 [24]: 6.15
pIC50 [25]: 6.15
pIC50 [26]: 6.15
pIC50 [27]: 6.15
pIC50 [28]: 6.15
pIC50 [29]: 6.15
pIC50 [30]: 6.15
pIC50 [31]: 6.15
pIC50 [32]: 6.15
pIC50 [33]: 6.15
pIC50 [34]: 6.15
pIC50 [35]: 6.15
pIC50 [36]: 6.15
pIC50 [37]: 6.15
pIC50 [38]: 6.15
pIC50 [39]: 6.15
pIC50 [40]: 6.15

pIC50 [1]: 5.30
SMILES: CCn1c(=O)/c(=C2\Sc3ccccc3N2C)s/c1=C\c1cccc[n+]1CC

pIC50 [1]: 4.43
SMILES: COc1ccc2cc3[n+](cc2c1OC)CCc1cc2c(cc1-3)OCO2 [BERBERINE]

GI50 [5]: 6.92 nM
GI50 [6]: 8.13 nM
GI50 [7]: 21.9 nM
GI50 [13]: 8.91 nM
GI50 [15]: 17.8 nM
GI50 [16]: 9.33 nM
GI50 [17]: 24.6 nM
GI50 [18]: 22.9 nM
GI50 [19]: 3.63 nM
GI50 [20]: 3.55 nM
GI50 [22]: 8.51 nM
GI50 [26]: 6.76 nM
GI50 [27]: 2.63 nM
GI50 [28]: 26.9 nM
GI50 [29]: 14.4 nM
GI50 [30]: 3.89 nM
GI50 [32]: 11.2 nM
GI50 [35]: 20.9 nM
GI50 [36]: 85.1 nM
GI50 [37]: 4.57 nM
GI50 [38]: 38 nM
GI50 [39]: 6.92 nM
GI50 [40]: 2.19 nM
SMILES: Cn1c(=O)n(-c2ccc(C(C)(C)C#N)cc2)c2c3cc(-c4cnc5ccccc5c4)ccc3ncc21 [DACTOLISIB]
GI50 [2]: 2.46 nM
GI50 [3]: 3.31 nM
GI50 [4]: 13.5 nM
GI50 [8]: 12 nM
GI50 [9]: 4.9 nM
GI50 [10]: 2.57 nM
GI50 [11]: 2.63 nM
GI50 [12]: 2.24 nM
GI50 [14]: 28.8 nM
GI50 [21]: 7.76 nM
GI50 [23]: 15.8 nM
GI50 [24]: 4.07 nM
GI50 [25]: 2.19 nM
GI50 [31]: 6.17 nM
GI50 [33]: 33.9 nM
GI50 [34]: 3.89 nM

GI50 [5]: 46.8 nM
GI50 [6]: 3470 nM
GI50 [7]: 3160 nM
GI50 [13]: 513 nM
GI50 [15]: 501 nM
GI50 [16]: 759 nM
GI50 [17]: 1350 nM
GI50 [18]: 1860 nM
GI50 [19]: 617 nM
GI50 [20]: 263 nM
GI50 [22]: 708 nM
GI50 [26]: 195 nM
GI50 [27]: 1740 nM
GI50 [28]: 550 nM
GI50 [29]: 1860 nM
GI50 [30]: 302 nM
GI50 [32]: 851 nM
GI50 [35]: 316 nM
GI50 [36]: 3020 nM
GI50 [37]: 282 nM
GI50 [38]: 955 nM
GI50 [39]: 1410 nM
GI50 [40]: 219 nM
SMILES: CS(=O)(=O)N1CCN(Cc2cc3nc(-c4cccc5[nH]ncc45)nc(N4CCOCC4)c3s2)CC1 [PICTILISIB]
GI50 [2]: 933 nM
GI50 [3]: 126 nM
GI50 [4]: 251 nM
GI50 [8]: 4070 nM
GI50 [9]: 427 nM
GI50 [10]: 316 nM
GI50 [11]: 79.4 nM
GI50 [12]: 302 nM
GI50 [14]: 1740 nM
GI50 [21]: 275 nM
GI50 [23]: 372 nM
GI50 [24]: 1200 nM
GI50 [25]: 513 nM
GI50 [31]: 132 nM
GI50 [33]: 2750 nM
GI50 [34]: 83.2 nM

GI50 [5]: 182 nM
GI50 [6]: 813 nM
GI50 [7]: 1820 nM
GI50 [13]: 851 nM
GI50 [15]: 646 nM
GI50 [16]: 525 nM
GI50 [17]: 1380 nM
GI50 [18]: 1050 nM
GI50 [19]: 407 nM
GI50 [20]: 263 nM
GI50 [22]: 676 nM
GI50 [26]: 389 nM
GI50 [27]: 1620 nM
GI50 [28]: 1200 nM
GI50 [29]: 1260 nM
GI50 [30]: 398 nM
GI50 [32]: 603 nM
GI50 [35]: 575 nM
GI50 [36]: 1950 nM
GI50 [37]: 245 nM
GI50 [38]: 1020 nM
GI50 [39]: 724 nM
GI50 [40]: 145 nM
SMILES: FC(F)c1nc2ccccc2n1-c1nc(N2CCOCC2)nc(N2CCOCC2)n1 [ZSTK-474]
GI50 [2]: 912 nM
GI50 [3]: 275 nM
GI50 [4]: 170 nM
GI50 [8]: 1480 nM
GI50 [9]: 347 nM
GI50 [10]: 479 nM
GI50 [11]: 155 nM
GI50 [12]: 355 nM
GI50 [14]: 2240 nM
GI50 [21]: 372 nM
GI50 [23]: 339 nM
GI50 [24]: 479 nM
GI50 [25]: 288 nM
GI50 [31]: 316 nM
GI50 [33]: 1910 nM
GI50 [34]: 245 nM
